From US8252572B2, “Use of islet glucose-6-phosphatase related protein as a diagnostic tool and therapeutic target for autoimmune diabetes” (priority 2003, dated 2012)

Assays:
[1] = tested on: mixed lymphocyte preparations of pre-diabetic 12 week old female NOD mice; assay: T-cell proliferative responses to recombinant antigens (3H thymidine); assay type: cell-based, NOD mouse; conditions: for T-cell proliferative response (in words): recombinant antigens as β-galactosidase fusion proteins, NOD lymphocytes
Experimental: Lymphocytes prepared from pancreatic draining lymph nodes were mixed with splenocytes from the same animal and incubated for 3 days (500×10^3 cells) in Click's medium with […] NOD mouse serum 50 μM mercaptoethanol and the indicated recombinant antigens that were generated as fusion proteins with β-galactosidase in the pUEX vector. Cultures were pulsed for 16 h with ^3H thymidine prior to harvest.
T-cell proliferative responses to recombinant IGRP (3-100 μg/ml) were observed from mixed lymphocyte preparations of pre-diabetic 12 week old female NOD mice (SImax=10).

NY8.3 CD8 T-cell clone = conditions: cited from earlier work
[2] = tested on: CD8 positive cells from the whole pancreas of NOD mice; assay: MHC class I tetramer binding to pancreatic mononuclear cells (FACS); assay type: cell-based, NOD mouse
Description: Cells were isolated from collagenase digested mouse pancreas by gradient centrifugation and subject to 3 color FACS analysis using antibodies to CD45, CD8 and PE-streptavidin conjugated tetramers carrying peptides derived from IGRP. The gated (R1) population were 95% CD45 positive and composed of 12.5% CD8 cells.
MHC class I tetramers were generated using the NIH tetramer facility. These were loaded with a series of peptides including the native mouse IGRP peptide (VYLKTNVFL (SEQ ID NO.: 6); peptide C, FIG. 4) corresponding to the NRP-V7 mimeotope (KYNKANVFL (SEQ ID NO.: 7)) that stimulates the NY8.3 CD8 T-cell clone. A procedure was developed for the isolation of mononuclear cells from the whole pancreas of NOD mice yielding approximately 0.5-1×10^6 CD45 positive cells (lymphocytes) per mouse (12-16 wk females) for tetramer binding assays (FIG. 4). The lymphocyte population contained 10-15% CD8 positive cells of which 8% bound the native peptide tetramer. These assays confirm the remarkable finding that a major proportion of the CD8 cells in the NOD pancreas target one specific IGRP epitope. The procedure developed here represents a technical advance on previous tetramer studies of activated NRP reactive T-cell in NOD mice which required up to 40 animals for a single experiment and amplification of islet-derived T-cells for 7-9 days in the presence of IL-2.

β-galactosidase: the fusion partner, used as control antigen [reference compound]
T-cell proliferative response (in words) [1]: minimal response

KYNKANVFL (SEQ ID NO.: 7) (artificial Mus sp.) [NRP-V7, mimeotope that stimulates the NY8.3 CD8 T-cell clone]
stimulation of T-cell clone (in words) (NY8.3 CD8 T-cell clone): stimulates

VYLKTNVFL (SEQ ID NO.: 6) (listed as Mus sp.) [peptide C, native mouse IGRP peptide, cognate peptide of the NY8.3 clone]
proportion of CD8 positive cells that bound the tetramer ([2]; K^d tetramer loaded with peptide, pancreatic lymphocytes of 12-16 wk female NOD mice): 8%
tetramer staining of pancreatic CD8 cells (in words) ([2]; PE-streptavidin conjugated tetramers carrying peptides derived from IGRP, 3 color FACS, FIG. 4): significant proportion bound

B1: G6Pase: equivalent β-galactosidase fusion construct with liver glucose-6-phosphatase (protein, UniProt P35575 1-357, looked up)
Glucose-6-phosphatase …: MEEGMNVLHDFGIQSTHYLQVNYQDSQDWFILVSVIADLRNAFYVLFPIWFHLQEAVGIKLLWVAVIGDWLNLVFKWILFGQRPYWWVLDTDYYSNTSVPLIKQFPVTCETGPGSPSGHAMGTAGVYYVMVTSTLSIFQGKIKPTYRFRCLNVILWLGFWAVQLNVCLSRIYLAAHFPHQVVAGVLSGIAVAETFSHIHSIYNASLKKYFLITFFLFSFAIGFYLLLKGLGVDLLWTLEKAQRWCEQPEWVHIDTTPFASLLKNLGTLFGLGLALNSSMYRESCKGKLSKWLPFRLSSIVASLVLLHVFDSLKPPSQVELVFYVLSFCKSAVVPLASVSVIPYCLAQVLGQPHKKSL
T-cell proliferative response (in words) [1]: minimal response

B2: UGRP: equivalent construct with ubiquitously expressed G6Pase related protein (protein, UniProt Q6NSQ9 1-346, looked up)
Glucose-6-phosphatase 3: MESTLSAGIIMAEALQNRLPGLENMWLWVTFLGDPKNLFQFCFPAAYYASRRLGISVLWITFIAEWLNLVFKWFLFGDRPFWWVHESGYSTQTPIQIHQFPSSCETGPGSPSGHCMITGAALWPVMTAISSQVASRSRSPWVRVIPGLAYCTFLLAVGLSRVFLLAHFPHQVLGGLIVGAALGWLMSPRVPMERELSFYGLTALALMLGASLMYWTLFTLGLDLSWSINLASKWCERPEWVHMDSRPFASLSRDSGSALGLGIALHTPCYAQIRRAHLGNGQKIACFVLAMGLLVFLEWLGYPPQISLFYIFNFLKYTLWPCLVLALVPWVVHTLSDQEAPPIRSS
T-cell proliferative response (in words) [1]: minimal response

B3: recombinant IGRP: recombinant islet glucose-6-phosphatase related protein generated as fusion protein with β-galactosidase in the pUEX vector (protein, UniProt Q9Z186 1-355, looked up)
Glucose-6-phosphatase 2: MDFLHRSGVLIIHHLQEDYRTYYGFLNFMSNVGDPRNIFSIYFPLWFQLNQNVGTKMIWVAVIGDWFNLIFKWILFGHRPYWWIQETEIYPNHSSPCLEQFPTTCETGPGSPSGHAMGSSCVWYVMVTAALSYTISRMEESSVTLHRLTWSFLWSVFWLIQISVCISRVFIATHFPHQVILGVIGGMLVAEAFEHTPGVHMASLSVYLKTNVFLFLFALGFYLLLRLFGIDLLWSVPIAKKWCANPDWIHIDSTPFAGLVRNLGVLFGLGFAINSEMFLRSCQGENGTKPSFRLLCALTSLTTMQLYRFIKIPTHAEPLFYLLSFCKSASIPLMVVALIPYCVHMLMRPGDKKTK
T-cell proliferative response, SImax ([1]; recombinant IGRP 3-100 μg/ml, β-galactosidase fusion protein, 3 days culture, 16 h 3H thymidine pulse): 10
